Test results from US8470964B2, “Peptides derived from NCAM (FGLs)” (Enkam Pharmaceuticals A/S, priority 2007, dated 2013).
Several values for one entry are separate records, joined by “and”; a condition that tells them apart may be missing. Equal values may be shown once. Entries after “also recorded” stand apart in the source; their conditions may differ. Where no end group is shown, it is not given here.

Assays:
[1] = tested on: (25-35) β-amyloid peptide fragment induced cognitive deficits model in rats; test: (25-35) β-amyloid induced cognitive deficits, intranasal administration, SRT; assay type: in vivo, rat; settings: 1.28 mg/kg intranasally daily, 15 doses day 7 to 21; SRT 22 days after β-amyloid injection
Source text: FIG. 9. Effects of intranasal administration of FGLs on the β-amyloid neurotoxicity induced deficit on performance in the Social Recognition Test. Rats received an intranasal administration of FGLs at the stated doses or vehicle daily at days 7 to 21 after i.c.v. administration of the (25-35) β-amyloid (A-β) fragment. 8-10 animals per group. Results are expressed as Means and SEM of Recognition Ratio and analyzed by one-sample t-test: **p<0.05.
In this study, the (25-35) β-amyloid peptide fragment induced cognitive deficits model in rats was used to investigate the dose-response (0.08, 0.32 or 1.28 mg/kg) effect of FGLs administered intranasally daily for 15 doses from day 7 to day 21 post β-amyloid peptide i.c.v. injection. The social memory performance was evaluated using the SRT, 22 days after the β-amyloid injection. A statistically significant impairment of short-term memory was observed as a consequence of the (25-35) β-amyloid neurotoxicity in the rats receiving the (25-35) β-amyloid fragment plus vehicle.

intact adult rats = test: Social Recognition Test (SRT), short-term social memory, subcutaneous administration; assay type: in vivo, rat
Method: (§1) FIG. 3. Effects of a single administration of vehicle or of FGLs on short-term social memory as evaluated in the Social Recognition Test (SRT). FGLs (8.0 mg/kg) or vehicle (sterile water, 4.0 ml/kg) was administered s.c. and the rats were tested twice with the initial trial of SRT performed 1 h and 73 h after administration. The juvenile rat was presented twice with an inter-trial interval of 2 hours. In each experimental group data were obtained from 9 to 11 rats. Results are shown as Mean and SEM of recognition ratio (RR). […] Comparisons of RR values to a hypothetical value 0.50 were carried using one-sample t-test. **P<0.01.
as §1, with “4.” for “3.”, “(1.0, 2.0, 4.0 and 8.0” for “(8.0”, “24” for “73”
FIG. 5. Effects of subcutaneous administration of FGLs, FGLL and VEB1 (2 administrations at the stated doses) on short-term social memory as evaluated in the Social Recognition Test (SRT). Results are shown as Mean and SEM of recognition ratio (RR). […] Comparisons of RR values to a hypothetical value 0.50 were carried using one-sample t-test.
The activity of FGLs, administered subcutaneously, in enhancing social memory in intact adult rats was examined in three studies. In both studies the test system was the Social Recognition Test (SRT), which is a reliable test for the evaluation of compounds active on short-term memory (Dantzer et al., 1987). In our studies we used a protocol of SRT were a juvenile rat was presented to the test rat twice, with an inter-trial interval (ITI) of 2 hours between the two tests. […] In the first study the rats received a single subcutaneous dose (8.0 mg/kg) of FGLs and were tested 1 hour and 73 hours after administration.
In the second study the rats received a single subcutaneous dose of 1.0, 2.0, 4.0 or 8.0 mg/kg of FGLs and were tested 1 hour and 24 hours after administration.
In the third study the dose response effects (0.25, 0.80, 2.50 and 8.0 mg/kg) of subcutaneous administration of FGLs were tested. In parallel were also tested FGLL and VEB1, another truncated form of FGLL. The peptides were administered twice, 24 and 5 hours before the first SRT, and the rats were tested 5 hour and 77 hours after the last administration

[2] = tested on: scopolamine induced social amnesia model in adult rats; test: Scopolamine induced social amnesia model (SRT); assay type: in vivo, rat; settings: 8 mg/kg s.c. twice, 19 hours interval
Method: FIG. 7. Effects of subcutaneous administration of FGLL FGLs, and VEB1 (2 administrations with a 19 hours interval, at 8 mg/kg) on the scopolamine induced social amnesia as evaluated in the Social Recognition Test (SRT). The rats were tested with the initial trial of SRT performed 5 h after the last administration of peptide/vehicle and 30 minutes after scopolamine (0.01 mg/kg s.c.) administration. The juvenile rat was presented twice with an inter-trial interval of 15 minutes.
A—Recognition ratios (RR) of rats treated with scopolamine and vehicle (Veh) or scopolamine and one of the three peptides as detailed above. Results are shown as Mean and SEM of recognition ratio (RR). […] Comparisons of RR values to a hypothetical value 0.50 were carried out using one-sample t-test. In each experimental group data were obtained from 10 rats.
B—Cumulative investigation time (T1, in seconds) during the first trial of the SRT of rats treated with scopolamine and vehicle (Veh) or scopolamine and one of the three peptides as detailed above. Results are shown as Mean and SEM of T1. Comparison between groups were carried out by ANOVA followed by Dunnett Multiple Comparison Test. In each experimental group data were obtained from 10 rats.
FGLs was tested for efficacy in the scopolamine induced social amnesia model in adult rats (Van Kampen et al., 2004). […]

[3] = tested on: primary cerebellar granule rat cells (CGC); test: Neurite outgrowth of cerebellar granule neurons; assay type: cell-based; settings: CGC from 7-day old Wistar rats, 24 hrs; bell-shaped dose response
Method: FIG. 2. Effects of FGLs on neurite outgrowth of early postnatal rat cerebellar neurons. CGCs were prepared from 7-day old Wistar rats and plated on uncoated eight-well Lab-Tek® chamber The peptide was added to the medium immediately after plating, and cells were maintained at 37° C., 5% CO2 for 24 hrs. CGC cultures were fixed in 4% and then immunostained against rat GAP-43. Neurite outgrowth was determined by image analysis of 200±20 neurons in each individual experiment. The length of neuronal processes per cell was estimated stereologically. The results are given as mean values±SEM from at least three independent experiments and illustrated as percentage of control values. *p<0.05 when compared with control by paired t-test.
This study investigated the effect of FGLs on neurite outgrowth of dissociated primary cerebellar granule rat cells (CGC) cultured in vitro.
Efficacy is found over a range of concentrations corresponding to that of target (FGFR) activation and follows the same bell-shaped dose-response.

[4] = s.c., administered twice, 77 hours after the last administration

Substance: FGLs: two identical 11 amino acid peptides (VAENQQGKSKA), forming a dimer through a linker molecule (iminodiacetic acid); peptide amide (VAENQQGKSKA-NH2; not fully specified; also: dimer of two identical peptides through iminodiacetic acid linker, attachment site not given here)
- deficit in social memory performance (SRT) compared with vehicle treated rats [1]: significant (p<0.01) amelioration of the deficit
- duration of mnemotropic effects after administration (intact adult rats; s.c. administration, short-term social memory): at least 72 hours
- minimum effective dose in SRT (intact adult rats; s.c., administered twice (24 and 5 hours before first SRT), 5 hours post administration, intact rats): 0.80 mg/kg and 0.8 mg/kg
- dose with significant social memory enhancing effect in SRT (intact adult rats; [4]): 2.50 mg/kg
- social memory enhancing effect in SRT (intact adult rats; [4]): Significant memory enhancing effects
- memory enhancing effect in SRT (recognition ratio) (intact adult rats; single s.c. dose 8.0 mg/kg, tested 1 hour after administration, inter-trial interval 2 hours): significant memory enhancing effect
- memory enhancing effect in SRT (recognition ratio) (intact adult rats; single s.c. dose 8.0 mg/kg, tested 73 hours after administration, inter-trial interval 2 hours): tendency to significance (p=0.06)
- memory enhancing effect in SRT (recognition ratio) (intact adult rats; single s.c. dose 2.0, 4.0 and 8.0 mg/kg, 1 hour post administration): significant memory enhancing effect
- memory enhancing effect in SRT (recognition ratio) (intact adult rats; single s.c. dose 4.0 and 8.0 mg/kg, 24 hours after administration): significant memory enhancing effect
- cumulative investigation time at the first encounter (T1) versus scopolamine and vehicle ([2]; scopolamine 0.01 mg/kg s.c.): significantly longer T1 than rats treated with vehicle; also recorded: significant difference in the cumulative investigation time at the first encounter
- recognition ratio (RR) versus theoretical value 0.5 in scopolamine treated rats ([2]; test 5 h after last dose, 30 minutes after scopolamine 0.01 mg/kg s.c.): Significant effects against scopolamine induced social amnesia; also recorded: RR significantly different from the theoretical value of 0.5
- concentration range with neurite outgrowth promoting activity [3]: 5 to 25 µg/mL
